Common to all, as to assay type: in vivo
Test [1] relates to barnyardgrass (Echinochloa crus-galli L.). Description: Test Example 2, soil application on the day after sowing. Particulars: 21st to 22nd day after application, visual, read-out: Growth inhibition rate (%) Barnyardgrass. The method in brief:
(§1)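 Upland soil pots were sown with seeds, and on the following day test formulations were sprayed onto the soil at the prescribed active-ingredient rates in water equivalent to 500 liter/hectare. Growth inhibition (0% = untreated, 100% = complete kill) was scored visually 21-22 days after application.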

Another test has as its system corn (Zea mays L.). The description is as above. Particulars: 21st to 22nd day after application, visual, read-out: Growth inhibition rate (%) Corn. The method, boiled down:
as §1

Test [2] relates to crabgrass (Digitaria sanquinalis L.). Described as above. Particulars: 21st to 22nd day after application, visual, read-out: Growth inhibition rate (%) Crabgrass. The method in brief:
as §1

Test [3] has as its system green foxtail (Setaria viridis L.). Described as above. Particulars: 21st to 22nd day after application, visual, read-out: Growth inhibition rate (%) Green foxtail. The method, boiled down: as §1
Test [4] deals with prickly sida (Sida spinosa L.). Described as above. The note with it: 21st to 22nd day after application, visual, read-out: Growth inhibition rate (%) Prickly sida. The method in brief:
as §1

Test [5] concerns redroot pigweed (Amaranthus retroflexus L.). The test is described as above. Particulars: 21st to 22nd day after application, visual, read-out: Growth inhibition rate (%) Redroot pigweed. The method, boiled down: as §1
In another test the test system is rice (Oryza sativa L.). The test is described as above. Particulars: 21st to 22nd day after application, visual, read-out: Growth inhibition rate (%) Rice. The method in brief:
as §1

Test [6] has as its system soybean (Glycine max Merr.). The test is described as above. The note with it: 21st to 22nd day after application, visual, read-out: Growth inhibition rate (%) Soybean. The method in brief: as §1
Test [7] concerns velvetleaf (Abutilon theophrasti MEDIC.). The test is described as above. The note with it: 21st to 22nd day after application, visual, read-out: Growth inhibition rate (%) Velvetleaf. The method in brief:
as §1

The test system of another test is wheat (Triticum spp.). The description is as above. Particulars: 21st to 22nd day after application, visual, read-out: Growth inhibition rate (%) Wheat. The method in brief: as §1
In test [8] the test system is Japanese bulrush (Scirpus juncoides). The test is described as follows: Test Example 3, paddy field pot, application to irrigated water. Particulars: Schoenoplectiella juncoides, applied at 0.5 leaf stage, 13th to 17th day after application, read-out: Growth inhibition rate (%) Japanese bulrush. The method in brief:
(§2)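 Weeds were sown or planted in flooded paddy-soil pots and treated in the water at 0.5-leaf or primary-leaf stage. Rice (Nihonbare), transplanted at two-leaf stage 3 cm deep, was treated on day 4. Diluted wettable powder or emulsifiable concentrate was used, and growth inhibition (0–100%) was scored visually at 13–17 days for weeds and 20–23 days for rice.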

Test [9] relates to Japanese ribbon waparo (Sagittaria pygmaea). The description is as above. Particulars: applied at primary leaf stage, 13th to 17th day after application, read-out: Growth inhibition rate (%) Japanese ribbon waparo. The method in brief:
as §2

The subject of test [10] is barnyardgrass (Echinochloa oryzicola vasing.). Described as above. The note with it: applied at 0.5 leaf stage, 13th to 17th day after application, read-out: Growth inhibition rate (%) barnyard grass. The method, boiled down: as §2
The test system of test [11] is rice (Oryza sativa L.) (var.: Nihonbare). Description: Test Example 3, paddy field pot, transplanted rice. Particulars: applied 4th day after transplantation, 20th to 23rd day after application, read-out: Growth inhibition rate (%) Rice. The method in brief: as §2

For `COCCOc1c(S(C)(=O)=O)ccc(C(=O)c2cnn(C(C)C)c2O)c1C` [Compound No. 8-1, (5-Hydroxy-1-isopropyl-1H-pyrazol-4-yl)(3-(2-methoxyethoxy)-2-methyl-4-(methylsulfonyl)phenyl)ketone], the inhibition (commonly the share of the control response that was lost under treatment) at 250 g/ha turned out to be 100% in [1]; 0% in the test on corn (Zea mays L.); 100% in test [2]; 100% in test [3]; 40% in [4]; 100% in test [5]. Besides, the inhibition at 250 g/ha in the test on rice (Oryza sativa L.) is 80%; in test [6] it was 0%; in test [7], 100%; with wheat (Triticum spp.), 0%. For the same compound, the inhibition at 63 g/ha in test [8] turned out to be 95%; in [9], 95%; in test [10], 95%; in test [11], 60%.

The values above are taken from patent publication US8466089B2, “Pyrazole compounds, process for their production and herbicides containing them” (Ishihara Sangyo Kaisha, Ltd., priority 2008, dated 2013).
